Here are results for 14 compounds from US11617741B1, “Method for inhibiting growth of bacteria” (priority 2021, dated 2023).

The subject of assay [1] is PKZRSA1 (PKZ18-22-resistant MRSA). In words: MICs against PKZ18-22-resistant mutant compared to WT MRSA. It counts as cell-based, Staphylococcus aureus. The procedure: (§1) The 96-well plate was organized as follows. Media (100 μl) were added to all wells.
Assay [2] concerns S. aureus N315 (MRSA isolate). In words: Minimum inhibitory and bactericidal concentration determination. It counts as cell-based, Staphylococcus aureus. The conditions noted are these: for change of MIC in minimal media compared to rich media: S. aureus N315; for MIC: Staphylococcus aureus, MRSA; for MIC S. aureus N315: Table 2; for MBC S. aureus N315: Table 2, value in parentheses. The procedure:
as §1

The next assay deals with glyQS T-box. In words: qRT-PCR transcriptional read-through of T-box-regulated glyQS (confirmation of inhibition of T-box mechanism). It counts as cell-based, Bacillus subtilis 1A5. The conditions noted are these: for T-Box targeting: confirmation of inhibition of T-box mechanism from qRT-PCR assay; for T-box-controlled expression of glyQS (termination of read-through): B. subtilis 1A5, increasing concentrations, minimal media; for inhibition of read-through compared with PKZ18: 4 μg/ml of each drug, side by side in same biological replicate. An excerpt: Sample preparation of RNA and cDNA.
In general terms: Real-time PCR tracks product formation cycle by cycle.

In the next assay the test system is E. coli. Nature of the assay: Minimum inhibitory and bactericidal concentration determination, Gram-negative control. Particulars: for MBC E. coli: value in parentheses. It counts as cell-based, Escherichia coli. Here is the method:
as §1

The test system of assay [3] is T-box controlled genes in MRSA. In words: RNA sequencing of MRSA grown in minimal media. The conditions noted are these: 4 μg/ml, control antibiotic. The format is cell-based, Staphylococcus aureus.
Another assay has as its system S. aureus N315. In words: Checkerboard assay and FIC. The format is cell-based, Staphylococcus aureus. Here is the method:
S. aureus N315 cultures were prepared identically to MIC determination in BHI media. The co-MICs were determined using the checkerboard method. In short, antibiotics to be tested with PKZ18 analogs were diluted 2-fold top to bottom (A to G rows) in a 96-well plate, PKZ18 analogs were diluted 2-fold right to left (columns 11-2 of the 96-well plate), and column 12 was used for vector, media, and growth controls. Each drug was therefore tested by itself and with every dilution of the other drug.
The synergistic and additive interactions were determined based on determined cutoffs using the equation
[formula] where MICAB is the lowest possible concentration of both drugs combined where there is no growth, and MICA and MICB are the MIC values of the individual drugs. For a synergistic drug interaction, the fractional inhibitory concentration (FIC) should be below 0.5, additive or indifferent effects are considered in an FIC range of 0.5 to <4, and an FIC value above 4 is considered antagonistic.

The next assay deals with S. aureus N315 (MRSA). In words: Antibiotic resistance frequency (fluctuation assay). It counts as cell-based, Staphylococcus aureus. The conditions noted are these: MRSA plated on 64 μg/ml PKZ18-22 or 10 μg/ml gentamicin. The text has this: Gentamicin on BHI agar was used as a control.
The subject of the next assay is B. subtilis 168. In words: Minimum inhibitory concentration determination. It counts as cell-based, Bacillus subtilis. The procedure: as §1

In brackets after ≈: the same amount, converted by molar mass. Like-named read-outs stand apart in the source and are kept apart here. Marks after values point to notes of the source that are not given here.

As usually defined, the MIC is the lowest concentration found to suppress growth.

On to `C/C(=C\C(=O)OCCCCCCCCC(=O)O)C[C@@H]1OC[C@H](C[C@@H]2O[C@H]2[C@@H](C)[C@H](C)O)[C@@H](O)[C@H]1O` [Mupirocin, reference compound], for which the “change in the MIC between WT and PKZRSA1” value in assay [1] is given as “no change”. For the same compound, in assay [2], the “change of MIC in minimal media compared to rich media” value is “increased MICs”. The MIC in assay [2] (S. aureus N315, minimal media, read-out: MIC against S. aureus in minimal media) came to 1 µg/mL (≈ 2 µM); in assay [2] (S. aureus N315, rich media, read-out: MIC against S. aureus in rich media), 0.25 µg/mL (≈ 0.499 µM).
Consider `Cc1sc(NC(=O)C2C3CCC(O3)C2C(=O)O)nc1-c1ccc(CC(C)C)cc1` (stereo not shown) [PKZ18-57], for which, in assay [2], the MIC S. aureus N315 is more than 256 µg/mL and the MBC S. aureus N315 is more than 256 µg/mL. In the assay with glyQS T-box (Table 1), the T-Box targeting result is “No”. Further, the T-Box targeting result with glyQS T-box (Table 2) is given as “No”. In the assay on E. coli, the MIC E. coli was more than 256 µg/mL and the MBC E. coli was more than 256 µg/mL.
For the compound `CO[C@H]1/C=C/O[C@@]2(C)Oc3c(C)c(O)c4c(O)c(c(/C=N/N5CCN(C)CC5)c(O)c4c3C2=O)NC(=O)/C(C)=C\C=C\[C@H](C)[C@H](O)[C@@H](C)[C@@H](O)[C@@H](C)[C@H](OC(C)=O)[C@@H]1C` [rifampin], the “change in the MIC between WT and PKZRSA1” value in assay [1] is given as “no change”.
For the compound `CCCc1ccc(-c2nc(NC(=O)C3C4CCC(O4)C3C(=O)O)sc2C)cc1` (stereo not shown) [PKZ18-56], in assay [2], the MIC S. aureus N315 is more than 256 µg/mL and the MBC S. aureus N315 was more than 256 µg/mL. In addition, the T-Box targeting entry with glyQS T-box (Table 1) is reported as “No”. The T-Box targeting entry in the assay with glyQS T-box (Table 2) is “No”. Also, in the assay with E. coli, the MIC E. coli is more than 256 µg/mL and the MBC E. coli is more than 256 µg/mL.
As for `COc1ccc(-c2csc(NC(=O)C3C4CCC(C4)C3C(=O)O)n2)cc1` (stereo not shown) [PKZ18-55], in assay [2], the MIC S. aureus N315 is more than 256 µg/mL and the MBC S. aureus N315 is more than 256 µg/mL. Besides, the T-Box targeting result with glyQS T-box (Table 1) is listed as “No”. The T-Box targeting result in the assay with glyQS T-box (Table 2) is on record as “No”. In addition, in the assay on E. coli, the MIC E. coli is more than 256 µg/mL and the MBC E. coli is more than 256 µg/mL.
Take `CCCCCCCCCC(=O)N[C@@H](Cc1c[nH]c2ccccc12)C(=O)N[C@H](CC(N)=O)C(=O)N[C@@H](CC(=O)O)C(=O)N[C@@H]1C(=O)NCC(=O)N[C@@H](CCCN)C(=O)N[C@@H](CC(=O)O)C(=O)N[C@H](C)C(=O)N[C@@H](CC(=O)O)C(=O)NCC(=O)N[C@H](CO)C(=O)N[C@@H]([C@H](C)CC(=O)O)C(=O)N[C@@H](CC(=O)c2ccccc2N)C(=O)O[C@@H]1C` [daptomycin, reference compound]: the “change in the MIC between WT and PKZRSA1” value in assay [1] was “no change”. Further, in assay [3], the “expression and read-through of T-box-controlled genes” value is on record as “lower than untreated for many of the genes”; the “initiation of T-box-controlled genes” value is on record as “did not significantly affect”.
As to `CCc1ccc(-c2csc(NC(=O)C3C4CCC(C4=C(C)C)C3C(=O)O)n2)cc1` (stereo not shown) [PKZ18-58], the T-Box targeting entry in the assay with glyQS T-box (Table 1) and with glyQS T-box (Table 2) was “No” each time.
Regarding `O=C(N[C@H](CO)[C@H](O)c1ccc([N+](=O)[O-])cc1)C(Cl)Cl` [chloramphenicol], the “fold lower MIC for PKZRSA1 than WT MRSA” value in assay [1] is 2 fold.
Regarding `CC(C)c1ccc(-c2csc(NC(=O)C3C4CCC(C4)C3C(=O)O)n2)cc1` (stereo not shown) [PKZ18-21], in assay [2], the “MIC S. aureus N315” value was found to be 64 µg/mL (≈ 166 µM) and the “MBC S. aureus N315” value was more than 256 µg/mL. In addition, the “T-box-controlled expression of glyQS (termination of read-through)” value (shortened to “T-box-controlled expression of glyQS”) with glyQS T-box is recorded as “inhibited”. In the assay on glyQS T-box (Table 1), the T-Box targeting result is “Yes”. The T-Box targeting result in the assay with glyQS T-box (Table 2) was “Yes”. For the same compound, in the assay with E. coli, the MIC E. coli was more than 256 µg/mL and the MBC E. coli is more than 256 µg/mL.
Gentamicin [reference compound]: in the assay on S. aureus N315 (in combination with PKZ18-22), the “fold decrease in the MIC of gentamicin” value is given as 8 fold. In addition, in assay [1], the “fold increase in MIC against PKZRSA1 compared to WT” value stood at 2 fold. For the same compound, the resistance frequency in the assay with S. aureus N315 (MRSA) was 1.6×10^−7. For the same compound, the “change of MIC in minimal media compared to rich media” value in assay [2] was “increased MICs”. Besides, in assay [2] (S. aureus N315, minimal media), the “MIC against S. aureus in minimal media” value is 2.0^b μg/ml. The “MIC against S. aureus in rich media” value in assay [2] (S. aureus N315, rich media) was 0.5^b μg/ml. Besides, in the assay with B. subtilis 168 (minimal media), the “MIC against B. subtilis 168 in minimal media” value is 0.25 µg/mL. Moreover, in the assay on B. subtilis 168 (rich media), the “MIC against B. subtilis 168 in rich media” value stood at 0.125 µg/mL.
Turning to `CCCCc1ccc(-c2nc(NC(=O)C3C4C=CC(C4)C3C(=O)O)sc2C)cc1` (stereo not shown) [PKZ18-52], in the assay with S. aureus N315 (with gentamicin), the “fractional inhibitory concentration FIC” value is on record as 0.38. Further, the “MIC against S. aureus in minimal media” value in assay [2] (S. aureus N315, minimal media) is recorded as 16^b μg/ml. Also, in assay [2] (S. aureus N315, rich media), the “MIC against S. aureus in rich media” value was 16-32^b μg/ml. In addition, in assay [2], the “MIC S. aureus N315” value turned out to be 32 µg/mL (≈ 77.9 µM) and the “MBC S. aureus N315” value was 64 µg/mL (≈ 156 µM). Also, in the assay with glyQS T-box, the “inhibition of read-through compared with PKZ18” value is given as “significantly better than PKZ18” and the “T-box-controlled expression of glyQS” value is “inhibited”. Further, in the assay on glyQS T-box (Table 1), the T-Box targeting entry was “Yes”. Besides, the T-Box targeting entry in the assay with glyQS T-box (Table 2) is on record as “Yes”. In the assay with E. coli, the MIC E. coli is more than 256 µg/mL and the MBC E. coli is more than 256 µg/mL.
Consider `Cc1sc(NC(=O)C2C3C=CC(C3)C2C(=O)O)nc1-c1ccc(CC(C)C)cc1` (stereo not shown) [PKZ18-53], for which, in the assay on S. aureus N315 (with ampicillin), the “fractional inhibitory concentration FIC” value was found to be 0.75. In addition, in the assay on S. aureus N315 (with chloramphenicol), the “fractional inhibitory concentration FIC” value turned out to be 0.75. The “fractional inhibitory concentration FIC” value with S. aureus N315 (with gentamicin) came to 0.38. Moreover, the “fold reduction in MIC in minimal compared to rich media” value in assay [2] (MRSA strain S. aureus N315) was found to be 2 fold. In addition, the “MIC against S. aureus in minimal media” value in assay [2] (S. aureus N315, minimal media) was 16^b μg/ml. For the same compound, the “MIC against S. aureus in rich media” value in assay [2] (S. aureus N315, rich media) is 32^b μg/ml. Besides, in assay [2], the “MIC S. aureus N315” value came to 32 µg/mL (≈ 77.9 µM) and the “MBC S. aureus N315” value is 64 µg/mL (≈ 156 µM). In the assay on glyQS T-box, the “inhibition of read-through compared with PKZ18” value was “significantly better than PKZ18” and the “T-box-controlled expression of glyQS” value is “inhibited”. For the same compound, the T-Box targeting result in the assay on glyQS T-box (Table 1) was “Yes”. The T-Box targeting entry in the assay on glyQS T-box (Table 2) is recorded as “Yes”. Also, in the assay with E. coli, the MIC E. coli was more than 256 µg/mL and the MBC E. coli is more than 256 µg/mL.
As for `CCCCc1ccc(-c2nc(NC(=O)C3C4CCC(O4)C3C(=O)O)sc2C)cc1` (stereo not shown) [PKZ18-54], in assay [2], the “MIC S. aureus N315” value was 128 µg/mL (≈ 309 µM) and the “MBC S. aureus N315” value stood at 256 µg/mL (≈ 618 µM). In the assay on glyQS T-box (Table 1), the T-Box targeting entry was “No”. Further, in the assay with glyQS T-box (Table 2), the T-Box targeting result is “No”. For the same compound, in the assay on E. coli, the MIC E. coli was more than 256 µg/mL and the MBC E. coli was more than 256 µg/mL.
In the case of `Cc1onc(-c2ccccc2)c1C(=O)N[C@@H]1C(=O)N2[C@@H]1SC(C)(C)[C@@H]2C(=O)O` [oxacillin], in assay [1], the “fold increase in MIC against PKZRSA1 compared to WT” value was 16 fold.
